Data as given in ChEMBL document CHEMBL1909046, “DrugMatrix in vitro pharmacology data”.

Columns and labels:
[1] = target: Epidermal growth factor receptor (Homo sapiens, UniProt P00533); assay: DRUGMATRIX: Protein Tyrosine Kinase, EGF Receptor enzyme inhibition (substrate: Poly(Glu:Tyr)); assay type: cell-based, Insect cells; details: insect cells; Not Active = under 50% inhibition at 10 µM
D(4) dopamine receptor = target: T1, D(4) dopamine receptor (Homo sapiens, UniProt P21917); assay: DRUGMATRIX: Dopamine D4.2 radioligand binding (ligand: [3H] Spiperone); assay type: cell membranes, CHO-K1, Membrane; details: cho-k1; Not Active = under 50% inhibition at 10 µM
T1 sequence (P21917 whole entry): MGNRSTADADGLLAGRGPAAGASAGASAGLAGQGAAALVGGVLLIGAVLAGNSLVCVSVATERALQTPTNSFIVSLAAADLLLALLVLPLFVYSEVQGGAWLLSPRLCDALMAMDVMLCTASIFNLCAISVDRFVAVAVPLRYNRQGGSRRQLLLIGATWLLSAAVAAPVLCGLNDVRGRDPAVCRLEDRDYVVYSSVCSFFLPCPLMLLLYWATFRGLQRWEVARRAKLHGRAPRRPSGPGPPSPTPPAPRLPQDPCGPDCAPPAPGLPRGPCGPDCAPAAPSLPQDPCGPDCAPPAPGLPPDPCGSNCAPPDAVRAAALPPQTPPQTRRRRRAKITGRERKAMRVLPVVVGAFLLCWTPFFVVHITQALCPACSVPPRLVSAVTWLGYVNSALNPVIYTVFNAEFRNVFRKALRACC

Substance-P receptor = Substance-P receptor (Homo sapiens, UniProt P25103); assay type: cell membranes, CHO, Membrane; details: cho; note: in other assays of this panel Not Active means under 50% inhibition at 10 µM
[2] = target: T2, C-X-C chemokine receptor type 1 (Homo sapiens, UniProt P25024); note: in other assays of this panel Not Active means under 50% inhibition at 10 µM
T2 sequence (P25024 whole entry): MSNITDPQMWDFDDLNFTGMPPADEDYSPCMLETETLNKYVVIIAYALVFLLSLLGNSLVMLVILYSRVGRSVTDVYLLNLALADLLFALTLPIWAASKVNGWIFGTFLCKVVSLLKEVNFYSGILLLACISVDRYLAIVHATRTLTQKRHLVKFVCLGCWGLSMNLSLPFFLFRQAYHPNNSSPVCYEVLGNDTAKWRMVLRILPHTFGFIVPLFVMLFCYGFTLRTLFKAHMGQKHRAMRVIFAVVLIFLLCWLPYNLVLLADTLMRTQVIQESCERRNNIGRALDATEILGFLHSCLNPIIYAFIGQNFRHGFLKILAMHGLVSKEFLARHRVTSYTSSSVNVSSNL

D(1A) dopamine receptor = D(1A) dopamine receptor (Homo sapiens, UniProt P21728); assay: DRUGMATRIX: Dopamine D1 radioligand binding (ligand: [3H] SCH-23390); assay type: cell membranes, CHO, Membrane; details: cho; Not Active = under 50% inhibition at 10 µM
[3] = target: T3, Muscarinic acetylcholine receptor M2 (Homo sapiens, UniProt P08172); assay type: cell membranes, CHO-K1, Membrane; details: cho-k1; note: in other assays of this panel Not Active means under 50% inhibition at 10 µM
T3 sequence (P08172 whole entry): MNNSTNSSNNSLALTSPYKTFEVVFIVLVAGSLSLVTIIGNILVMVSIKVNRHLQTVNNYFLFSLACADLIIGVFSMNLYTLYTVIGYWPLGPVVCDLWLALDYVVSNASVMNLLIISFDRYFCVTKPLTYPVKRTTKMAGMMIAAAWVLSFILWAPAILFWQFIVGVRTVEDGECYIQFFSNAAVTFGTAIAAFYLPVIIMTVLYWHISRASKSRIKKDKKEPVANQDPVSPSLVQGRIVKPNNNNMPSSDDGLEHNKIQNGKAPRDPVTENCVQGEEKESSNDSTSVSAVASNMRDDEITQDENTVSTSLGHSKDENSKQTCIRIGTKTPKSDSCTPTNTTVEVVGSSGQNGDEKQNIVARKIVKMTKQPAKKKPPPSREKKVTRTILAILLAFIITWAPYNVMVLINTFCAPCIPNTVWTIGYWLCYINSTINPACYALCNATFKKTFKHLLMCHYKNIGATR

[4] = DRUGMATRIX: Sodium/nucleoside co-transporter radioligand binding (ligand: nitrobenzylthioinosine); assay type: cell membranes, Cavia porcellus, Dunkin-Hartley, Cerebral cortex, Membrane; details: Not Active = under 50% inhibition at 10 µM

Substance-P receptor, sequence (P25103 whole entry): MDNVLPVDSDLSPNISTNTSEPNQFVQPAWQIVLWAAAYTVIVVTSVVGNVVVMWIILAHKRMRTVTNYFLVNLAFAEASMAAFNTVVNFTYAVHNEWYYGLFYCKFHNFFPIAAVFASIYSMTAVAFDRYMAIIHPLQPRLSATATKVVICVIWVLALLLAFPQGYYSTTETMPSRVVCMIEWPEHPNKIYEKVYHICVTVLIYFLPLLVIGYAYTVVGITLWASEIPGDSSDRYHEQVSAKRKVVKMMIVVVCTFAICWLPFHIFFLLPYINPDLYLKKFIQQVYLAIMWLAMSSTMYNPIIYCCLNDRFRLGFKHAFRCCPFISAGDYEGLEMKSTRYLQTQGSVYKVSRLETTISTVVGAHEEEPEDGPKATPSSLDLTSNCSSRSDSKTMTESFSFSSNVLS
D(1A) dopamine receptor, sequence (P21728 whole entry): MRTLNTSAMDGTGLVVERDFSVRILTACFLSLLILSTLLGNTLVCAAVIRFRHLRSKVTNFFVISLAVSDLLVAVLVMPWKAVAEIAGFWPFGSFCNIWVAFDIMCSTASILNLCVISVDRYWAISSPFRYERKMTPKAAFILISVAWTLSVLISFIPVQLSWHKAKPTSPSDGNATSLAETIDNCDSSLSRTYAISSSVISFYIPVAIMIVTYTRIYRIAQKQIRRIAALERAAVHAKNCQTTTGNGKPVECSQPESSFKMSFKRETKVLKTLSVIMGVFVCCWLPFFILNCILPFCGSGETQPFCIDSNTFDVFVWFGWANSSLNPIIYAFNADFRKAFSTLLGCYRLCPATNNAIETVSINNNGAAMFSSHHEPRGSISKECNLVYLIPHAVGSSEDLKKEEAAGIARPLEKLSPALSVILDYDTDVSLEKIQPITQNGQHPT

CNNCc1ccc(C(=O)NC(C)C)cc1 [PROCARBAZINE]
Not Active: IC50 [1] | IC50 (D(4) dopamine receptor) | IC50 (Substance-P receptor) | IC50 [2] | IC50 (D(1A) dopamine receptor) | IC50 [3] | IC50 [4] | Ki [4]

CC(C)C(=O)Nc1ccc([N+](=O)[O-])c(C(F)(F)F)c1 [FLUTAMIDE]
Not Active: IC50 [1] | IC50 (D(4) dopamine receptor) | IC50 (Substance-P receptor) | IC50 [2] | IC50 (D(1A) dopamine receptor) | IC50 [3] | IC50 [4] | Ki [4]

LEAD (II) ACETATE
Not Active: IC50 [1] | Ki [1] | IC50 (D(4) dopamine receptor) | Ki (D(4) dopamine receptor) | IC50 (Substance-P receptor) | Ki (Substance-P receptor) | IC50 [2] | Ki [2] | IC50 (D(1A) dopamine receptor) | Ki (D(1A) dopamine receptor) | IC50 [3] | Ki [3] | IC50 [4] | Ki [4]

C[C@H]1c2cccc(O)c2C(=O)C2=C(O)[C@]3(O)C(=O)C(C(N)=O)=C(O)[C@@H](N(C)C)[C@@H]3[C@@H](O)[C@@H]21.O [DOXYCYCLINE]
Not Active: IC50 [1] | IC50 (D(4) dopamine receptor) | IC50 (Substance-P receptor) | IC50 [2] | IC50 (D(1A) dopamine receptor) | IC50 [3] | IC50 [4] | Ki [4]

COc1ccc(C[C@H]2NC[C@H](O)[C@H]2OC(C)=O)cc1 [ANISOMYCIN]
Not Active: IC50 [1] | Ki [1] | IC50 (D(4) dopamine receptor) | Ki (D(4) dopamine receptor) | IC50 (Substance-P receptor) | Ki (Substance-P receptor) | IC50 [2] | Ki [2] | IC50 (D(1A) dopamine receptor) | Ki (D(1A) dopamine receptor) | IC50 [3] | Ki [3] | IC50 [4] | Ki [4]
